These results are taken from patent US7897565B2, “Compositions for HCV treatment” (priority 2004, dated 2011).

The subject of experiment [1] is Balb/c spleen cells. Put plainly: Mixed Lymphocyte Reaction (MLR), activity relative to cyclosporin A. It counts as cell-based, mice. The source says:
Cyclosporins which bind strongly to cyclophilin but are not immunosuppressive have been identified. A cyclosporin is considered to be non-immunosuppressive when it has an activity in the Mixed Lymphocyte Reaction (MLR) of no more than 5%, preferably no more than 2%, that of cyclosporin A. The Mixed Lymphocyte Reaction is described by T. Meo in “Immunological Methods”, L. Lefkovits and B. Peris, Eds., Academic Press, N.Y. pp. 227-239 (1979). Spleen cells (0.5×10^6) from Balb/c mice (female, 8˜10 weeks) are co-incubated for 5 days with 0.5×10^6 irradiated (2000 rads) or mitomycin C treated spleen cells from CBA mice (female, 8˜10 weeks). The irradiated allogeneic cells induce a proliferative response in the Balb/c spleen cells which can be measured by labeled precursor incorporation into the DNA. […] The IC50 found for the test compound in the MLR is compared with that found for cyclosporin A in a parallel experiment. In addition, non-immunosuppressive cyclosporins lack the capacity of inhibiting CN and the downstream NF-AT pathway.

Experiment [2] addresses human recombinant cyclophilin (Homo sapiens, UniProt P62937). Put plainly: competitive ELISA for binding to cyclophilin (Binding Ratio vs cyclosporin A). To be noted: negative value = binding stronger than cyclosporin A. The procedure:
A cyclosporin is considered as binding to cyclophilin if it binds to human recombinant cyclophilin at least one fifth as well as does cyclosporin A in the competitive ELISA test described by Quesniaux in Eur. J. Immunol. 1987 17:1359-1365. In this test, the cyclosporin to be tested is added during the incubation of cyclophilin with coated BSA-cyclosporin A and the concentration required to give a 50% inhibition of the control reaction without competitor is calculated (IC50). The results are expressed as the Binding Ratio (BR), which is the log to the base 10 of the ratio of the IC50 of the test compound and the IC50 in a simultaneous test of cyclosporin A itself.
On the technique in general: ELISA stands for enzyme-linked immunosorbent assay.

The subject of experiment [3] is HCV replicon cells clone A. Put plainly: nine-day viral RNA reduction assay (quantitative RT-PCR). Format: cell-based, hepatitis C virus. The protocol: Analysis of the effect of combination treatment, are examined using nine-day viral RNA reduction assays. HCV replicon cells clone A are treated with compounds in DMEM supplemented with 10% FBS and 0.2% DMSO for 3, 6, or 9 days, then the total intracellular RNA is extracted, and the level of HCV RNA is determined by real-time quantitative RT-PCR (Taqman) using HCV-specific primers and probe as described above. For each treatment, the quantity of HCV RNA is normalized against the amount of total RNA extracted, which is determined in a Quant-iT assay (Molecular Probe). The log reduction of HCV RNA is calculated by comparing the level of HCV RNA in compound-treated cells to that of untreated cells.

Experiment [4] concerns HCV replicon cells clone A. It counts as cell-based, hepatitis C virus. To be noted: 1 mg/ml G418. The procedure: HCV replicon cells clone A are treated with various concentrations of NIM811 and BILN2061 either alone or in combination in the presence of 1 mg/ml G418.

Non-standard residues stand in square brackets, D forms with d. Residues, ends and D or L forms follow the SMILES beside them. ξ: configuration not given here. ξNMeBmt = C/C=C/C[C@@H](C)[C@@H](O)C(NC)C(=O)O; NMeL = CN[C@@H](CC(C)C)C(=O)O; NMeV = CN[C@H](C(=O)O)C(C)C; NMeA = CN[C@@H](C)C(=O)O; Abu = CC[C@H](N)C(=O)O; Sar = CNCC(=O)O

Chain of human recombinant cyclophilin (P62937 whole entry): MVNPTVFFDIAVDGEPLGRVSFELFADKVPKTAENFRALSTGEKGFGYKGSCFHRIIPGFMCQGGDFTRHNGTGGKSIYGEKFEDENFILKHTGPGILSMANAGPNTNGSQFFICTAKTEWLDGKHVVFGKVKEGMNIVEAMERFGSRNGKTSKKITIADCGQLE

For the compound `C/C=C/C[C@@H](C)[C@@H](O)C1C(=O)N[C@@H](CC)C(=O)N(C)CC(=O)N(C)[C@@H](CC(C)C)C(=O)N(C)[C@@H](C(C)C)C(=O)N(C)[C@@H](CC(C)C)C(=O)N[C@@H](C)C(=O)N[C@H](C)C(=O)N(C)[C@@H](CC(C)C)C(=O)N(C)[C@@H](CC(C)C)C(=O)N(C)[C@@H](C(C)C)C(=O)N1C` (stereo partly shown) [[MeVal]^5-Ciclosporin], in experiment [1], the “IR (Immunosuppressive Ratio), percentage of the activity relative to Cyclosporin A” value is 5.3%. In experiment [2], the “BR (Binding Ratio): log to the base 10 of the ratio of the IC50 of the test compound and the IC50 of cyclosporin A” value (“BR (Binding Ratio): log” below) amounted to 0.4.

Turning to [Ethyl-Val]^4-Ciclosporin, in experiment [2], the “BR (Binding Ratio): log” value worked out at 0.

With IFN-α, the “log reduction of HCV RNA” value in experiment [3] (5 U/ml IFN-α alone, 9 days) was found to be 1.2 log.

For `CC[C@@H]1NC(=O)C([C@H](O)[C@H](C)C/C=C/CO)N(C)C(=O)[C@H](C(C)C)N(C)C(=O)[C@H](CC(C)C)N(C)C(=O)[C@H](CC(C)C)N(C)C(=O)[C@@H](C)NC(=O)[C@H](C)NC(=O)[C@H](CC(C)C)N(C)C(=O)[C@H](C(C)C)NC(=O)[C@H](CC(C)C)N(C)C(=O)CN(C)C1=O` (stereo partly shown) [[8′-hydroxy-MeBmt]^5-Ciclosporin], the “IR (Immunosuppressive Ratio), percentage of the activity relative to Cyclosporin A” value in experiment [1] came out at 1.8%. Besides, in experiment [2], the “BR (Binding Ratio): log” value is 0.35.

Regarding `C/C=C/C[C@@H](C)[C@@H](O)[C@H]1C(=O)N[C@@H](CC)C(=O)N(C)CC(=O)N(C)[C@@H]([C@@H](C)CC)C(=O)N[C@@H](C(C)C)C(=O)N(C)[C@@H](CC(C)C)C(=O)N[C@@H](C)C(=O)N[C@H](C)C(=O)N(C)[C@@H](CC(C)C)C(=O)N(C)[C@@H](CC(C)C)C(=O)N(C)[C@@H](C(C)C)C(=O)N1C` [NIM811, [Melle]^4-Ciclosporin], the “BR (Binding Ratio): log” value in experiment [2] is recorded as −0.2. Also, the “log reduction of HCV RNA” value in experiment [3] (0.5 μM NIM811 alone, 9 days of treatment) is listed as 1.2 log; in experiment [3] (1 μM NIM811 alone, 9 days of treatment) it was “greater than 3 log”.

As to [Ethyl-Ile]^4-Ciclosporin, in experiment [2], the “BR (Binding Ratio): log” value came out at 0.1.

As to `C/C=C/C[C@@H](C)[C@@H](O)C1C(=O)N[C@@H](CC)C(=O)N(C)CC(=O)N(C)[C@@H](CC(C)C)C(=O)N[C@@H](C(C)C)C(=O)N(C)[C@@H](C)C(=O)N[C@@H](C)C(=O)N[C@H](C)C(=O)N(C)[C@@H](CC(C)C)C(=O)N(C)[C@@H](CC(C)C)C(=O)N(C)[C@@H](C(C)C)C(=O)N1C` (stereo partly shown) [[MeAla]^6-Ciclosporin] (cyclo(A[dA][NMeL][NMeL][NMeV][ξNMeBmt][Abu][Sar][NMeL]V[NMeA])), the “IR (Immunosuppressive Ratio), percentage of the activity relative to Cyclosporin A” value in experiment [1] is reported as 3.2%. Besides, in experiment [2], the “BR (Binding Ratio): log” value was −0.4.

For `COc1ccc2c(O[C@@H]3C[C@H]4C(=O)N[C@]5(C(=O)O)C[C@H]5/C=C\CCCCC[C@H](NC(=O)OC5CCCC5)C(=O)N4C3)cc(-c3csc(NC(C)C)n3)nc2c1` [BILN2061], the “treatment time after which resistant colonies start to form” value in experiment [4] turned out to be 2 weeks.

`CC=CCC(C)C(O)C1C(=O)NC(CC)C(=O)N(C)CC(=O)N(C)C(C(C)C)C(=O)NC(C(C)C)C(=O)N(C)C(CC(C)C)C(=O)NC(C)C(=O)NC(C)C(=O)N(C)C(CC(C)C)C(=O)N(C)C(CC(C)C)C(=O)N(C)C(C(C)C)C(=O)N1C` (stereo not shown) [[MeVal]^4-Ciclosporin]: in experiment [2], the “BR (Binding Ratio): log” value worked out at 0.1.

As for `C/C=C/C[C@@H](C)[C@@H](O)C1C(=O)N[C@@H](CC)C(=O)N(C)CC(=O)N(C)[C@@H](CC(C)C)C(=O)N[C@@H](C(C)C)C(=O)N(C)[C@@H](CC(C)C)C(=O)N[C@@H](C)C(=O)N[C@H](C)C(=O)N(C)[C@@H](CC(C)(C)O)C(=O)N(C)[C@@H](CC(C)C)C(=O)N(C)[C@@H](C(C)C)C(=O)N1C` (stereo partly shown) [[γ-hydroxy-MeLeu]^9-Ciclosporin], the “IR (Immunosuppressive Ratio), percentage of the activity relative to Cyclosporin A” value in experiment [1] came out at 2.9%. For the same compound, in experiment [2], the “BR (Binding Ratio): log” value is reported as 0.15.
